Consider one molecule from patent US20070254023A1, “Perorally Administrable Antimicrobial Composition” (priority 2004, published 2007).

This series has as its system bifidobacteria. Briefly: Effect of peroral administration on bifidobacteria of the gut in CBA mice. The series is classed as in vivo. As to conditions: ten-day peroral course, tetracycline 750 mg/kg. An excerpt: Comparative experimental trials of the effect of peroral administration of antibiotics and an antibacterial composition comprising an antibiotic and lactulose on gut organisms and liver condition in CBA mice.
Models of experimental pathology caused by peroral administration of ampicillin and tetracycline in large doses were used.

With `CN(C)[C@@H]1C(O)=C(C(N)=O)C(=O)[C@@]2(O)C(O)=C3C(=O)c4c(O)cccc4[C@@](C)(O)[C@H]3C[C@@H]12` [tetracycline], the “contents of bifidobacteria in the large intestine” value was “reduced the contents of bifidobacteria”.
